Results as given in ChEMBL document CHEMBL1158272, “Novel antiplatelet constituents from formosan moraceous plants” (J Nat Prod, 1996).
In brackets after ≈: the same amount, converted by molar mass.

Experiments:
[1] = Antiplatelet activity against rabbit platelets assessed as arachidonic acid-induced platelet aggregation at 300 uM by turbidimetric method; assay type: functional, Oryctolagus cuniculus
[2] = Antiplatelet activity against rabbit platelets assessed as collagen-induced platelet aggregation at 300 uM by turbidimetric method; assay type: functional, Oryctolagus cuniculus
[3] = Antiplatelet activity against rabbit platelets assessed as platelet-activating facto-induced platelet aggregation at 300 uM by turbidimetric method; assay type: functional, Oryctolagus cuniculus
[4] = Antiplatelet activity against rabbit platelets assessed as thrombin-induced platelet aggregation at 300 uM by turbidimetric method; assay type: functional, Oryctolagus cuniculus
[5] = Antiplatelet activity against rabbit platelets assessed as arachidonic acid-induced platelet aggregation by turbidimetric method; assay type: functional, cell-based; settings: Oryctolagus cuniculus
[6] = Antiplatelet activity against rabbit platelets assessed as collagen-induced platelet aggregation by turbidimetric method; assay type: functional, cell-based; settings: Oryctolagus cuniculus
[7] = Antiplatelet activity against rabbit platelets assessed as arachidonic acid-induced platelet aggregation at 20 uM by turbidimetric method; assay type: functional, Oryctolagus cuniculus
[8] = Antiplatelet activity against rabbit platelets assessed as collagen-induced platelet aggregation at 20 uM by turbidimetric method; assay type: functional, Oryctolagus cuniculus
[9] = Antiplatelet activity against rabbit platelets assessed as platelet-activating facto-induced platelet aggregation at 20 uM by turbidimetric method; assay type: functional, Oryctolagus cuniculus
[10] = Antiplatelet activity against rabbit platelets assessed as thrombin-induced platelet aggregation at 20 uM by turbidimetric method; assay type: functional, Oryctolagus cuniculus
[11] = Antiplatelet activity against human platelets in platelet rich plasma assessed as adrenaline-induced platelet aggregation at 50 uM pretreated 3 mins before adrenaline challenge by turbidimetric method; assay type: functional
[12] = Antiplatelet activity against rabbit platelets assessed as arachidonic acid-induced platelet aggregation at 50 uM by turbidimetric method; assay type: functional, Oryctolagus cuniculus
[13] = Antiplatelet activity against rabbit platelets assessed as collagen-induced platelet aggregation at 50 uM by turbidimetric method; assay type: functional, Oryctolagus cuniculus
[14] = Antiplatelet activity against rabbit platelets assessed as platelet-activating facto-induced platelet aggregation at 50 uM by turbidimetric method; assay type: functional, Oryctolagus cuniculus
[15] = Antiplatelet activity against rabbit platelets assessed as thrombin-induced platelet aggregation at 50 uM by turbidimetric method; assay type: functional, Oryctolagus cuniculus
[16] = Inhibition of ram seminal vesicle cyclooxygenase pretreated 2 mins before arachidonate substrate addition; assay type: tissue-based, Ovis aries
[17] = Antiplatelet activity against human platelets in platelet rich plasma assessed as adrenaline-induced platelet aggregation at 450 uM pretreated 3 mins before adrenaline challenge by turbidimetric method; assay type: functional
[18] = Antiplatelet activity against rabbit platelets assessed as collagen-induced platelet aggregation at 60 uM by turbidimetric method; assay type: functional, Oryctolagus cuniculus
[19] = Antiplatelet activity against rabbit platelets assessed as platelet-activating facto-induced platelet aggregation at 60 uM by turbidimetric method; assay type: functional, Oryctolagus cuniculus
[20] = Antiplatelet activity against rabbit platelets assessed as arachidonic acid-induced platelet aggregation at 15 uM by turbidimetric method; assay type: functional, Oryctolagus cuniculus
[21] = Antiplatelet activity against rabbit platelets assessed as collagen-induced platelet aggregation at 15 uM by turbidimetric method; assay type: functional, Oryctolagus cuniculus
[22] = Antiplatelet activity against rabbit platelets assessed as platelet-activating facto-induced platelet aggregation by turbidimetric method; assay type: functional, cell-based; settings: Oryctolagus cuniculus
[23] = Antiplatelet activity against human platelets in platelet rich plasma assessed as adrenaline-induced platelet aggregation at 300 uM pretreated 3 mins before adrenaline challenge by turbidimetric method; assay type: functional
[24] = Antiplatelet activity against rabbit platelets assessed as arachidonic acid-induced platelet aggregation at 100 uM by turbidimetric method; assay type: functional, Oryctolagus cuniculus
[25] = Antiplatelet activity against rabbit platelets assessed as platelet-activating facto-induced platelet aggregation at 100 uM by turbidimetric method; assay type: functional, Oryctolagus cuniculus
[26] = Antiplatelet activity against rabbit platelets assessed as collagen-induced platelet aggregation at 100 uM by turbidimetric method; assay type: functional, Oryctolagus cuniculus
[27] = Antiplatelet activity against rabbit platelets assessed as thrombin-induced platelet aggregation at 100 uM by turbidimetric method; assay type: functional, Oryctolagus cuniculus
[28] = Antiplatelet activity against rabbit platelets assessed as arachidonic acid-induced platelet aggregation at <100 uM by turbidimetric method; assay type: functional, Oryctolagus cuniculus
[29] = Antiplatelet activity against rabbit platelets assessed as collagen-induced platelet aggregation at <100 uM by turbidimetric method; assay type: functional, Oryctolagus cuniculus
[30] = Antiplatelet activity against rabbit platelets assessed as platelet-activating facto-induced platelet aggregation at <100 uM by turbidimetric method; assay type: functional, Oryctolagus cuniculus
[31] = Antiplatelet activity against rabbit platelets assessed as thrombin-induced platelet aggregation at <100 uM by turbidimetric method; assay type: functional, Oryctolagus cuniculus
[32] = Antiplatelet activity against human platelets in platelet rich plasma assessed as adrenaline-induced platelet aggregation at 150 uM pretreated 3 mins before adrenaline challenge by turbidimetric method; assay type: functional
[33] = Antiplatelet activity against human platelets in platelet rich plasma assessed as adrenaline-induced platelet aggregation at 100 uM pretreated 3 mins before adrenaline challenge by turbidimetric method; assay type: functional
[34] = Antiplatelet activity against rabbit platelets assessed as arachidonic acid-induced platelet aggregation at 30 uM by turbidimetric method; assay type: functional, Oryctolagus cuniculus
[35] = Antiplatelet activity against rabbit platelets assessed as collagen-induced platelet aggregation at 30 uM by turbidimetric method; assay type: functional, Oryctolagus cuniculus
[36] = Antiplatelet activity against rabbit platelets assessed as platelet-activating facto-induced platelet aggregation at 30 uM by turbidimetric method; assay type: functional, Oryctolagus cuniculus

Compound `COc1cc(OC)c([C@@H]2CC(=O)c3c(O)cc(OC)c(CC=C(C)C)c3O2)c(OC)c1` has an Activity [1] of 81.5%, an Activity [2] of 68.9% and an Activity [3] of 84.5%. It also gave an Activity [4] of 85.7%.
`COc1cc(O)c2c(c1)O[C@H](c1c(OC)cc(OC)cc1OC)CC2=O` gave an Activity [1] of 27.9%, an Activity [2] of 66.1% and an Activity [3] of 81%. It also gave an Activity [4] of 83.1%.
Work on `COc1cc(O)c2c(c1)O[C@H](c1ccc(O)cc1O)CC2=O` [ARTOCARPANONE] yielded an Activity [1] of 0%, an Activity [2] of 1.1% and an Activity [3] of 38.6%. It also gave an Activity [4] of 90.2%, an IC50 [5] of 41 µM and an IC50 [6] of 90.7 µM.
Compound `COc1cc(O)c2c(=O)cc(-c3ccc(O)cc3O)oc2c1CC=C(C)C` [ARTOCARPETIN A] has an Activity [1] of 61.8%, an Activity [2] of 46.8% and an Activity [3] of 59.8%. For the same compound, the Activity [4] was 80.4%.
In the case of `COc1cc(O)c2c(=O)cc(-c3ccc(O)cc3O)oc2c1` [ARTOCARPETIN], the Activity [1] is reported as 0%, the Activity [2] is reported as 73.8% and the Activity [3] is reported as 85.7%. For the same compound, the Activity [4] was 88.2% and the IC50 [5] was 95.9 µM.
`COc1cc2oc(-c3ccc(O)cc3O)c(CC=C(C)C)c(=O)c2c(O)c1/C=C/C(C)C` [ARTOCARPIN] showed an Activity [7] of 54.8%, an Activity [8] of 84% and an Activity [9] of 76%. For the same compound, the Activity [10] was 87.3%.
Compound `CC(=O)Oc1ccccc1C(=O)O` [ASPIRIN] has an Activity [11] of 39.6%, an Activity [12] of 0% and an Activity [13] of 85.4%. For the same compound, the Activity [14] was 90.5% and the Activity [15] was 91.9%.
Work on `CC(C)=CCc1cc2c(cc1O)O/C(=C\c1ccc(O)c(O)c1)C2=O` [BROUSSOAURONE A] yielded an IC50 [16] of 22.7 µg/mL (≈ 67.1 µM), an Activity [1] of 0% and an Activity [2] of 0%. For the same compound, the Activity [3] was 89.5%, the Activity [4] was 93.7% and the IC50 [5] was 15.4 µM.
In the case of `CC(C)=CCc1cc(C(=O)/C=C/c2ccc(O)c(O)c2)c(O)cc1O` [BROUSSOCHALCONE A], the Activity [17] is reported as 40.1%, the IC50 [16] is reported as 19.4 µg/mL (≈ 57 µM) and the Activity [18] is reported as 0%. For the same compound, the Activity [19] was 67.8%, the Activity [20] was 0% and the Activity [21] was 55.1%. The IC50 [5] was 6.8 µM, the IC50 [6] was 22.4 µM and the IC50 [22] was 119 µM. For the same compound, the Activity [23] was 74%.
`CC(=O)Oc1cc(O)c(C(=O)/C=C/c2ccc(OC(C)=O)c(OC(C)=O)c2)cc1CC=C(C)C` [BROUSSOCHALCONE TRIACETATE] showed an Activity [1] of 9.3%, an Activity [2] of 23.1% and an Activity [3] of 0%. The Activity [4] was 88.4%, the Activity [24] was 9.6% and the Activity [25] was 82.1%. The IC50 [5] was 91.7 µM.
Compound `CC(C)=CCc1c([C@@H]2CCc3ccc(O)cc3O2)cc2c(c1O)OC(C)(C)C(O)C2O` (stereo partly specified) [BROUSSOFLAVAN A] has an Activity [1] of 0%, an Activity [2] of 0% and an Activity [3] of 87.9%. The Activity [4] was 92% and the IC50 [5] was 86.7 µM.
With `CC(C)=CCc1c(-c2oc3c(CC=C(C)C)c(O)cc(O)c3c(=O)c2O)cc(O)c(O)c1CC=C(C)C` [BROUSSOFLAVONOL E] the Activity [24] was 0%, the Activity [26] was 0% and the Activity [25] was 86.4%. For the same compound, the Activity [27] was 91.8% and the IC50 [5] was 39.9 µM.
`CC(C)=CCc1cc(-c2oc3c(CC=C(C)C)c(O)cc(O)c3c(=O)c2O)ccc1O` [BROUSSOFLAVONOL F] gave an IC50 [16] of 17.5 µg/mL (≈ 41.4 µM), an Activity [24] of 0% and an Activity [26] of 0%. The Activity [25] was 84.8%, the Activity [27] was 93.1% and the IC50 [5] was 16.9 µM.
`COc1ccc2c(c1)OC(C=C(C)C)c1c-2oc2cc(O)c(/C=C/C(C)C)c(O)c2c1=O` (stereo unspecified) [CYCLOARTOCARPIN A] gave an Activity [7] of 39.5%, an Activity [8] of 60.9% and an Activity [9] of 86.5%. It also gave an Activity [10] of 89.9%, an IC50 [5] of 18.5 µM and an IC50 [6] of 23.7 µM.
Work on `CC(=O)Oc1cc2c(cc1OC(C)=O)-c1oc3c(CC=C(C)C)c4c(c(O)c3c(=O)c1C(C=C(C)C)O2)C=CC(C)(C)O4` (stereo unspecified) [CYCLOHETERPHYLLIN DIACETATE] yielded an Activity [28] of 83.4%, an Activity [29] of 4.9% and an Activity [30] of 86%. For the same compound, the Activity [31] was 91.3%.
Compound `CC(=O)Oc1cc2c(cc1OC(C)=O)-c1oc3c(CC=C(C)C)c4c(c(OC(C)=O)c3c(=O)c1C(C=C(C)C)O2)C=CC(C)(C)O4` (stereo unspecified) [CYCLOHETERPHYLLIN PERACETATE] has an Activity [28] of 74%, an Activity [29] of 73% and an Activity [30] of 78.3%. The Activity [31] was 91%.
Work on `CC(C)=CCc1c2c(c(O)c3c(=O)c4c(oc13)-c1cc(O)c(O)cc1OC4C=C(C)C)C=CC(C)(C)O2` (stereo unspecified) [CYCLOHETERPHYLLIN] yielded an Activity [32] of 55.1%, an Activity [33] of 61.6% and an IC50 [16] of 26.1 µg/mL (≈ 51.9 µM). It also gave an Activity [1] of 0%, an Activity [2] of 33.8% and an Activity [3] of 4.5%. It also gave an Activity [4] of 82.4%, an IC50 [5] of 10.9 µM and an Activity [23] of 35.5%.
In the case of `CC(C)=CCc1c(-c2cc(O)c(O)cc2O)oc2c(CC=C(C)C)c3c(c(O)c2c1=O)C=CC(C)(C)O3` [HETEROPHYLLIN], the Activity [24] is reported as 0%, the Activity [26] is reported as 0% and the Activity [25] is reported as 32%. The Activity [27] was 80.2%, the IC50 [5] was 49.8 µM and the IC50 [6] was 48.7 µM.
In the case of `COc1ccc2c(c1)c(CC(=O)O)c(C)n2C(=O)c1ccc(Cl)cc1` [INDOMETHACIN], the IC50 [16] is reported as 0.7 µg/mL (≈ 1.96 µM).
In the case of `CC(C)=CCc1cc([C@@H]2CCc3ccc(O)cc3O2)c(CC=C(C)C)c(O)c1O` [KAZINOL A], the Activity [34] is reported as 0%, the Activity [35] is reported as 0% and the Activity [36] is reported as 65.8%. It also gave an IC50 [5] of 11.4 µM, an IC50 [6] of 20.7 µM and an IC50 [22] of 54.6 µM.
For `CC(C)=CCc1c([C@@H]2CCc3ccc(O)cc3O2)cc2c(c1O)OC(C)(C)C=C2` [KAZINOL B], the Activity [32] was 27.6%, the Activity [33] was 27.9% and the IC50 [16] was 155.3 µg/mL (≈ 396 µM). It also gave an Activity [12] of 0%, an Activity [13] of 4% and an Activity [14] of 42.6%. The Activity [15] was 79.8%, the IC50 [5] was 32.6 µM and the Activity [23] was 23.1%.
